Test results reported in PubChem BioAssay AID652026 (The Scripps Research Institute Molecular Screening Center, 2013).
Activity calls are given as the source filed them.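 The calls were made as follows: active = STAT5 reporter signal fold change below 0.5 at a 10 µM dose; inactive = the rest.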

Test system: T47D STAT5-luciferase reporter, prolactin-induced, luminescence
Assay: reduction of prolactin-induced STAT5 luciferase – cell-based, luminescence, T47D, assay provider, late-stage follow-up (AID 652026)
Conditions: at 10 µM; stronger effect = lower value

## CN1/C(=C\C(=O)Cn2cc(C(F)(F)F)ccc2=O)C(C)(C)c2ccccc21
  fold change: 0.971 (inactive)

## CCOC(=O)C1CCCN(CC(=O)/C=C2/N(C)c3ccccc3C2(C)C)C1 (stereo not given)
  fold change: 0.856 (inactive)

## Cc1cc[n+](CC(=O)/C=C2\N(C)c3ccccc3C2(C)C)c(C)c1
  fold change: 0.67 (inactive)

## CN1/C(=C\C(=O)CN2C(=O)c3ccccc3C2=O)C(C)(C)c2ccccc21
  fold change: 0.859 (inactive)

## O=C(C[n+]1ccc2ccccc2c1)c1ccc2ccccc2c1
  fold change: 0.818 (inactive)

## COC(=O)C1CCCCN1CC(=O)/C=C1/N(C)c2ccccc2C1(C)C (stereo not given)
  fold change: 0.906 (inactive)

## O=C(C[n+]1ccc2ccccc2c1)c1ccccc1
  fold change: 0.909 (inactive)

## CN1/C(=C\C(=O)CN2CCCC2)C(C)(C)c2ccccc21
  fold change: 0.704 (inactive)

## CN1/C(=C\C(=O)CN2C(=O)c3ccccc3S2(=O)=O)C(C)(C)c2ccccc21
  fold change: 0.733 (inactive)

## CN1/C(=C\C(=O)C[n+]2cccc(-c3ccccc3)c2)C(C)(C)c2ccccc21
  fold change: 0.367

## CN1/C(=C\C(=O)CN2C(=O)c3ccccc3CS2(=O)=O)C(C)(C)c2ccccc21
  fold change: 0.766 (inactive)

## CN1/C(=C\C(=O)CN2C(=O)C3CC=CCC3C2=O)C(C)(C)c2ccccc21 (stereo not given)
  fold change: 0.473

## CN1/C(=C\C(=O)Cn2nnc(-c3ccccc3)n2)C(C)(C)c2ccccc21
  fold change: 0.724 (inactive)

## COc1ccc2oc(=O)c(C(=O)C[n+]3ccc4ccccc4c3)cc2c1
  fold change: 0.843 (inactive)

## CN1/C(=C\C(=O)Cn2c(=O)c(C#N)cn(C)c2=O)C(C)(C)c2ccccc21
  fold change: 0.739 (inactive)

## CC(C)(C)C(=O)C[n+]1ccc2ccccc2c1
  fold change: 0.696 (inactive)

## O=C(C[n+]1ccc2ccccc2c1)c1cc2ccccc2oc1=O
  fold change: 0.305

## Cc1cc[n+](CC(=O)/C=C2\N(C)c3ccccc3C2(C)C)cc1
  fold change: 0.738 (inactive)

## CN1/C(=C\C(=O)CN2C(=O)NC(C)(c3ccc(Cl)cc3)C2=O)C(C)(C)c2ccccc21 (stereo not given)
  fold change: 0.769 (inactive)

## CN1/C(=C\C(=O)Cn2cnc3ccc(Cl)cc3c2=O)C(C)(C)c2ccccc21
  fold change: 0.845 (inactive)

## O=C(C[n+]1ccc2ccccc2c1)Nc1ccccc1
  fold change: 0.895 (inactive)

## CN1/C(=C\C(=O)CN2CCc3ccccc3C2)C(C)(C)c2ccccc21
  fold change: 0.962 (inactive)

## CN1/C(=C\C(=O)CN2C(=O)c3ccc([N+](=O)[O-])cc3C2=O)C(C)(C)c2ccccc21
  fold change: 0.76 (inactive)

## COc1cccc2cc(C(=O)C[n+]3ccc4ccccc4c3)c(=O)oc12
  fold change: 0.965 (inactive)

## CN1/C(=C\C(=O)C[n+]2ccccc2)C(C)(C)c2ccccc21
  fold change: 0.777 (inactive)
